Read-outs that look alike come from different tables or passages of the source. Blank lines part the entries; values can stand above or below the compound they belong to.
Molecular target: T1, human growth hormone secretagogue receptor (hGHS-R1a) (Homo sapiens, UniProt Q92847)
T1 construct: purchased PerkinElmer BioSignal #RBHGHSM, lot#1887; host or cells: HEK-293, stably transfected (membranes)
Assay: Competitive radioligand binding assay (ghrelin receptor), [125I]-ghrelin displacement on GHS-R/HEK 293 membranes
Protocol: The competitive binding assay at the human growth hormone secretagogue receptor (hGHS-R1a) was carried out analogously to assays described in the literature.
Multiscreen Harvest plates-GF/C (Millipore, #MAHFC 1H60) • 4. […] Bottom seal (Millipore, #MATAH0P00) • 7. […] Binding Buffer: 25 mM Hepes (pH 7.4), 1 mM CaCl2, 5 mM MgCl2, 2.5 mM EDTA, 0.4% BSA Assay Volumes
Competition experiments were performed in a 300 μl filtration assay format. • 1. 220 μL of membranes diluted in binding buffer • 2. 40 μL of compound diluted in binding buffer • 3. […] Compound Handling
Compounds were provided frozen on dry ice at a stock concentration of 10 mM diluted in 100% DMSO and stored at −80° C. until the day of testing. On the test day, compounds were allowed to thaw at rt O/N and then diluted in assay buffer according to the desired test concentrations.
Plates were sealed with TopSeal-A, vortexed gently and incubated at rt for 30 min. The reaction was arrested by filtering samples through Multiscreen Harvest plates (pre-soaked in 0.5% polyethyleneimine) using a Tomtec Harvester, washed 9 times with 500 μL of cold 50 mM Tris-HCl (pH 7.4, 4° C.), and then plates were air-dried in a fumehood for 30 min. A bottom seal was applied to the plates prior to the addition of 25 μL of MicroScint-0 to each well. […] Results were expressed as counts per minute (cpm).
Data were analyzed by GraphPad Prism (GraphPad Software, San Diego, Calif.) using a variable slope non-linear regression analysis.
• 1. […] Key Aspects of Method • 1. […] Results

[1] = Table 3E, human ghrelin receptor, read-out: Ki
[2] = binding activity at the human ghrelin receptor, [125I]-ghrelin competition, GHS-R/HEK 293 membranes, read-out: Ki
[3] = [125I]-ghrelin competition, GHS-R/HEK 293 membranes, Table 3A, read-out: Binding Activity at the Human Ghrelin Receptor
[4] = second table titled 3C (compounds 435-449), human ghrelin receptor, read-out: Ki
[5] = binding activity at the human ghrelin receptor, [125I]-ghrelin displacement, read-out: Ki
[6] = Table 3C (compounds 18, 334-397), human ghrelin receptor, read-out: Ki

T1 sequence (Q92847 whole entry): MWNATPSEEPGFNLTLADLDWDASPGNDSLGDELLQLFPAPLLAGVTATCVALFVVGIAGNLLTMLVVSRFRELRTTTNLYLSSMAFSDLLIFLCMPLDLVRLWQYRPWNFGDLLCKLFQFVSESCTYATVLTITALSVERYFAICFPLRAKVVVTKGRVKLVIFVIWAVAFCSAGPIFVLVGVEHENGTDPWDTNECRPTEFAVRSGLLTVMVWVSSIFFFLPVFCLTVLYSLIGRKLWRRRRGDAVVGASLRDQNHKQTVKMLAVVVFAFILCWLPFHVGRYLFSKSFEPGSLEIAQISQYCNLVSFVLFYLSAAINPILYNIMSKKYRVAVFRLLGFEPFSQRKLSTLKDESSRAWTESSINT

Ki [1]: 1000 to 10000 nM
Structure (SMILES): CCC[C@@H]1NCCOc2ccccc2CCCNC(=O)[C@@H](Cc2ccccc2)NC(=O)[C@@H]2CCCN2C1=O

Ki [1]: 100 to 1000 nM
Structure (SMILES): CCC[C@@H]1NCCOc2ccccc2CCCNC(=O)[C@@H](Cc2ccccc2)NC(=O)[C@H]2CCCN2C1=O

Ki [1]: 1000 to 10000 nM
Structure (SMILES): CCC[C@@H]1NCCOc2ccccc2CCCNC(=O)[C@H](Cc2ccccc2)NC(=O)[C@@H]2CCCN2C1=O

Ki [1]: 1000 to 10000 nM
Structure (SMILES): CCC[C@@H]1NCCOc2ccccc2CCCNC(=O)[C@H](Cc2ccccc2)NC(=O)[C@H]2CCCN2C1=O

Ki [1]: > 10000 nM
Structure (SMILES): CCC(C)[C@@H]1NCCOc2ccccc2CCCNC(=O)[C@@H](Cc2ccccc2)NC(=O)[C@H]2C[C@H](O)CN2C1=O (some centres unmarked)

Ki [1]: 100 to 1000 nM
Structure (SMILES): C[C@@H]1C(=O)N[C@H](Cc2ccccc2)C(=O)NCCCc2ccccc2OCCN2CCC[C@H]2C(=O)N1C

Ki [1]: 100 to 1000 nM
Structure (SMILES): CCC(C)[C@@H]1NCCOc2ccccc2CCCNC(=O)[C@@H](Cc2ccccc2)N2CC[C@@H](NC1=O)C2=O (some centres unmarked)

Ki [1]: > 10000 nM
Structure (SMILES): CCC(C)[C@@H]1NCCOc2ccccc2CCCNC(=O)[C@@H](Cc2ccccc2)N2CC[C@H](NC1=O)C2=O (some centres unmarked)

Ki [1]: 10 to 100 nM
Structure (SMILES): CCC(C)[C@@H]1NCCOc2ccccc2CCCNC(=O)[C@@H](Cc2ccccc2)N2CC[C@H](C2=O)N(C)C1=O (some centres unmarked)

Ki [1]: 100 to 1000 nM
Structure (SMILES): CCC(C)[C@@H]1NCCOc2ccccc2CCCNC(=O)[C@@H](Cc2ccccc2)N2CC[C@@H](C2=O)N(C)C1=O (some centres unmarked)

Ki [2]: 10 to 100 nM
Structure (SMILES): CCC1NCCOc2ccccc2C=CCNC(=O)C(Cc2ccccc2)NC(=O)C2(CCCC2)NC1=O (single isomer, unassigned) [136a]

Ki [2]: 100 to 1000 nM
Structure (SMILES): CCC1NCCOc2ccccc2/C=C/CNC(=O)C(Cc2ccccc2)NC(=O)C2(CCCC2)NC1=O (single isomer, unassigned) [136b]

Ki [2]: 100 to 1000 nM
Structure (SMILES): CCC(C)C1NCCOc2ccccc2CCCNC(=O)C(Cc2ccccc2)NC(=O)C(C(C)C)N(C)C1=O (single isomer, unassigned) [145a]

Ki [2]: > 1000 nM
Structure (SMILES): CCC(C)C1NCCOc2ccccc2CCCNC(=O)C(Cc2ccccc2)NC(=O)C(C(C)C)N(C)C1=O (single isomer, unassigned) [145b]

Ki [3]: 100 to 1000 nM
Structure (SMILES): CCC(C)C1NCCc2ccccc2CCCCNC(=O)C(Cc2ccccc2)NC(=O)C(C)N(C)C1=O (single isomer, unassigned) [189a]

Ki [4]: > 10000 nM
Structure (SMILES): CCC(C)C1NCCOc2ccccc2/C=C/CNC(=O)C(CO)NC(=O)C2(CCCC2)NC1=O (single isomer, unassigned) [442a]

Ki [4]: > 10000 nM
Structure (SMILES): CCC(C)C1NCCOc2ccccc2/C=C/CNC(=O)C(COC)NC(=O)C2(CCCC2)NC1=O (single isomer, unassigned) [443a]

Ki [4]: > 10000 nM
Structure (SMILES): CC(C)CC1NCCOc2ccccc2/C=C/CNC(=O)C(Cc2c[nH]cn2)NC(=O)C2(CCCC2)NC1=O (single isomer, unassigned) [444a]

Ki [4]: 1000 to 10000 nM
Structure (SMILES): CC1C(=O)NC(Cc2ccc(F)cc2)C(=O)NCCOCCOCCNC(C2CC2)C(=O)N1C (single isomer, unassigned) [446a]

Ki [3]: > 1000 nM
Structure (SMILES): CC(C)CC1NCCOc2ccccc2C=CCNC(=O)C(Cc2ccccn2)NC(=O)C2(CCCC2)NC1=O (stereo in doubt) [160a]

Ki [2]: 100 to 1000 nM
Structure (SMILES): CCC[C@@H]1NC(=O)[C@@H](C(C)C)NCCOc2ccccc2C=CCNC(=O)[C@H](Cc2ccccc2)NC1=O (stereo in doubt) [compound 13]

Ki [2]: 100 to 1000 nM
Structure (SMILES): CC[C@H](C)[C@@H]1NCCOc2ccccc2C=CCNC(=O)[C@H](Cc2ccccc2)NC(=O)[C@@H](C)NC1=O (stereo in doubt) [compound 14]

Ki [2]: > 10000 nM
Structure (SMILES): CC(C)C[C@@H]1NCCOc2ccccc2C=CCNC(=O)[C@H](CCC(=O)O)NC(=O)C2(CCCC2)NC1=O (stereo in doubt) [compound 45]

Ki [2]: > 10000 nM
Structure (SMILES): CC(C)C[C@@H]1NCCOc2ccccc2C=CCNC(=O)[C@H](C(C)C)NC(=O)C2(CCCC2)NC1=O (stereo in doubt) [compound 46]

Ki [2]: 100 to 1000 nM
Structure (SMILES): O=C1NC2(CCCC2)C(=O)N[C@@H](Cc2ccccc2)C(=O)NCC=Cc2ccccc2OCCN[C@H]1Cc1ccccc1Cl (stereo in doubt) [compound 122]

Ki [2]: 100 to 1000 nM
Structure (SMILES): O=C1NC2(CCCC2)C(=O)N[C@@H](Cc2ccccc2)C(=O)NCC=Cc2ccccc2OCCN[C@H]1Cc1cccc(Cl)c1 (stereo in doubt) [compound 123]

Ki [2]: 1000 to 10000 nM
Structure (SMILES): O=C1NC2(CCCC2)C(=O)N[C@@H](Cc2ccccc2)C(=O)NCC=Cc2ccccc2OCCN[C@H]1Cc1ccc(Cl)cc1 (stereo in doubt) [compound 124]

Ki [2]: 100 to 1000 nM
Structure (SMILES): O=C1NC2(CCCC2)C(=O)N[C@@H](Cc2ccccc2)C(=O)NCC=Cc2ccccc2OCCN[C@H]1CCc1ccccc1 (stereo in doubt) [compound 126]

Ki [2]: > 10000 nM
Structure (SMILES): O=C1NC2(CCCC2)C(=O)N[C@@H](Cc2ccccc2)C(=O)NCC=Cc2ccccc2OCCN[C@H]1Cc1ccc(-c2ccccc2)cc1 (stereo in doubt) [compound 128]

Ki [2]: > 1000 nM
Structure (SMILES): O=C1NC2(CCCC2)C(=O)N[C@@H](Cc2ccccc2)C(=O)NCC=Cc2ccccc2OCCN[C@H]1Cc1ccncc1 (stereo in doubt) [compound 133]

Ki [2]: 100 to 1000 nM
Structure (SMILES): O=C1NC2(CCCC2)C(=O)NC(Cc2ccccc2)C(=O)NCC=Cc2ccccc2OCCNC1Cc1cccs1 (stereo in doubt) [compound 135]

Ki [2]: 10 to 100 nM
Structure (SMILES): CC[C@H](C)[C@@H]1NCCOc2ccccc2C=CCNC(=O)[C@H](Cc2ccccc2)NC(=O)C2(CCCC2)NC1=O (stereo in doubt) [compound 138]

Ki [2]: 100 to 1000 nM
Structure (SMILES): CC(C)[C@@H]1NCCOc2ccccc2C=CCNC(=O)[C@H](Cc2ccccc2)NC(=O)C2(CCCCC2)NC1=O (stereo in doubt) [compound 139]

Ki [2]: 100 to 1000 nM
Structure (SMILES): CC(C)C1NCCOc2ccccc2C=CCNC(=O)C(Cc2ccccc2)NC(=O)C2(CCSCC2)NC1=O (stereo in doubt) [compound 143]

Ki [2]: > 500 nM
Structure (SMILES): CC(C)C[C@@H]1NCCOc2ccccc2C=CCNC(=O)[C@H](CCc2ccccc2)NC(=O)C2(CCCC2)NC1=O (stereo in doubt) [compound 155]

Ki [3]: 100 to 1000 nM
Structure (SMILES): CC(C)C[C@@H]1NCCOc2ccccc2C=CCNC(=O)[C@H](Cc2ccc(-c3ccccc3)cc2)NC(=O)C2(CCCC2)NC1=O (stereo in doubt) [compound 157]

Ki [3]: 10 to 100 nM
Structure (SMILES): CC(C)C[C@@H]1NCCOc2ccccc2C=CCNC(=O)[C@H](Cc2ccc3ccccc3c2)NC(=O)C2(CCCC2)NC1=O (stereo in doubt) [compound 159]

Ki [3]: 100 to 1000 nM
Structure (SMILES): CC(C)C[C@@H]1NCCOc2ccccc2C=CCNC(=O)[C@H](Cc2cccs2)NC(=O)C2(CCCC2)NC1=O (stereo in doubt) [compound 164]

Ki [3]: > 10000 nM
Structure (SMILES): CC[C@@H]1NC(=O)C2(CCCC2)NC(=O)[C@H](CC(C)C)NCCOc2ccccc2C=CCNC1=O (stereo in doubt) [compound 165]

Ki [3]: 100 to 1000 nM
Structure (SMILES): CC(C)[C@@H]1NCCOc2ccccc2C=CCNC(=O)[C@H](Cc2ccccc2)NC(=O)C2(CC2)NC1=O (stereo in doubt) [compound 199]

Ki [3]: 1000 to 10000 nM
Structure (SMILES): CC(C)C[C@H]1C(=O)NC2(CCCC2)C(=O)N[C@@H](Cc2ccccc2)C(=O)NCC=Cc2ccccc2OCCN1C (stereo in doubt) [compound 203]

Ki [3]: > 1000 nM
Structure (SMILES): CC(C)C1NCCOc2ccccc2C=CCNC(=O)C(Cc2ccccc2)NC(=O)C2(CCNCC2)NC1=O (stereo in doubt) [compound 211]

Ki [5]: 0.1 to 10 nM
Structure (SMILES): C[C@@H]1C(=O)N[C@H](Cc2ccc(Cl)cc2)C(=O)NCC=Cc2ccccc2OCCN[C@@H](C2CC2)C(=O)N1C (stereo in doubt) [compound 308]

Ki [6]: 10 to 100 nM
Structure (SMILES): CC1(C)NCCOc2ccccc2C=CCNC(=O)[C@H](Cc2cccc(Cl)c2)NC(=O)C2(CCCC2)NC1=O (stereo in doubt) [compound 349]

Ki [6]: 100 to 1000 nM
Structure (SMILES): CC1(C)NCCOc2ccccc2C=CCNC(=O)[C@H](Cc2cccc(Cl)c2)NC(=O)C(C)(C)NC1=O (stereo in doubt) [compound 350]

Ki [6]: 100 to 1000 nM
Structure (SMILES): C[C@@H]1NC(=O)C2(CCCC2)NCCOc2ccccc2C=CCNC(=O)[C@H](Cc2cccc(Cl)c2)NC1=O (stereo in doubt) [compound 352]

Ki [5]: 10 to 100 nM
Structure (SMILES): CC[C@H](C)[C@@H]1NCCOc2ccccc2CCCNC(=O)C(Cc2cccc(Cl)c2)NC(=O)C2(CCCC2)NC1=O (stereo in doubt) [compound 369]

Ki [2]: 100 to 1000 nM
Structure (SMILES): CCC(C)C1NCCOc2ccccc2CCCNC(=O)C(Cc2ccccc2)NC(=O)C(C(C)CC)N(C)C1=O (centres unmarked) [150a]

Ki [1]: 1000 to 10000 nM
Structure (SMILES): CCC(C)C1NCCOc2ccccc2CCCNC(=O)C(Cc2ccccc2)N2CCC(C2=O)N(C)C1=O (stereo not drawn) [230 diastereomer]

Ki [2]: 10 to 100 nM
Structure (SMILES): CCC(C)C1NCCOc2ccccc2CCCNC(=O)C(Cc2ccccn2)NC(=O)C(C)N(C)C1=O (centres unmarked) [compound 32]

Ki [2]: 10 to 100 nM
Structure (SMILES): CCC(C)C1NCCOc2ccccc2CCCNC(=O)C(Cc2ccccc2)NC(=O)C(CC)N(C)C1=O (centres unmarked) [compound 41]

Ki [2]: > 10000 nM
Structure (SMILES): CC(C)CC1NCCOc2ccccc2C=CCNC(=O)C(CC(C)C)NC(=O)C2(CCCC2)NC1=O (centres unmarked) [compound 47]

Ki [2]: > 10000 nM
Structure (SMILES): CCC[C@@H]1NCCOc2ccccc2CCCNC(=O)[C@@H](C)NC(=O)CN(C)C1=O [compound 49]
